The assay deals with a variety of cell types that are representative of different cancers. Briefly: Alamar Blue cell viability assay, variety of cell types representative of different cancers (Tables 12-14). The format is cell-based. The following applies: Homo sapiens. How it is done: A representative cell-proliferation assay protocol using Alamar Blue dye (stored at 4° C., use 20 ul per well) is described hereafter.
96-Well Plate Setup and Compound Treatment
a. Split and trypsinize cells.
b. Count cells using hemocytometer.
c. Plate 4,000-5,000 cells per well in 100 μl of medium and seed into a 96-well plate according to the following plate layout. Add cell culture medium only to wells B10 to B12. Wells B1 to B9 have cells but no compound added.
d. Add 100 μl of 2× drug dilution to each well in a concentration shown in the plate layout above. At the same time, add 100 μl of media into the control wells (wells B10 to B12). Total volume is 200 μl/well.
e. Incubate four (4) days at 37° C., 5% CO2 in a humidified incubator.
f. Add 20 μl Alamar Blue reagent to each well.
g. Incubate for four (4) hours at 37° C., 5% CO2 in a humidified incubator.
h. Record fluorescence at an excitation wavelength of 544 nm and emission wavelength of 590 nm using a microplate reader.
In the assays, cells are cultured with a test compound for approximately four days, the dye then is added to the cells and fluorescence of […] dye is detected after approximately four hours. Different types of cells can be utilized in the assays (e.g., HCT-116 human colorectal carcinoma cells, PC-3 human prostatic cancer cells and MiaPaca human pancreatic carcinoma cells). Anti-proliferative effects of representative compounds are provided hereafter.
Inhibitory activity on cell proliferation of Compounds A1, A2 and A3 was determined using an Alamar Blue cell viability assay (e.g., Example 39 herein) using a variety of cell types that are representative of different cancers Inhibition values (IC50) are presented in micromolar concentrations in the following table (Table 12).
Inhibitory activity on cell proliferation of representative compounds of the invention was determined using an Alamar Blue cell viability assay (e.g., Example 39 herein) using a variety of cell types that are representative of different cancers Inhibition values (IC50) are presented in micromolar concentrations in Table 13 and Table 14.
Background: Alamar Blue is a resazurin reagent that responds to reducing activity.

Setting [1] is: HCT-116, HCT-116 cells, Table 13, read-out: AB: HCT-116 (IC50).
The mark [2] stands for this setting: K562, K-562 cells, Table 13, read-out: AB: K-562 (IC50).
The mark [3] stands for this setting: MV4-11, MV-4-11 cells, Table 13, read-out: AB: MV-4-11 (IC50).
The mark [4] stands for this setting: PC-3, PC3 cells, Table 13, read-out: AB: PC3 (IC50).
[5] abbreviates: K562, K-562 cells, Table 14, read-out: AB: K-562 (IC50).
[6] abbreviates: MIA PaCa-2, MiaPaCa cells, Table 14, read-out: AB: MiaPaCa (IC50).
Setting [7] is: MV4-11, MV-4-11 cells, Table 14, read-out: AB: MV-4-11 (IC50).
[8] abbreviates: PC-3, PC3 cells, Table 14, read-out: AB: PC3 (IC50).
[9] abbreviates: THP-1, THP-1 cells, Table 14, read-out: AB: THP-1 (IC50).

SMILES strings stand for the structures. Like-named read-outs stand apart in the source and are kept apart here.

As a reminder, the IC50 is the point on the concentration scale where inhibition reaches its midpoint.

Regarding `O=C(NC1CC1)c1c(=O)c2ccc(NCC(O)c3ccccc3)nc2n2c1sc1ccccc12` (stereo not shown), the IC50 is greater than 10 µM under setting [1], greater than 10 µM under setting [2], greater than 10 µM under setting [3] and greater than 10 µM under setting [4].

As for `COCCNC(=O)c1c(=O)c2ccc(NCC(O)c3ccccc3)nc2n2c1sc1ccccc12` (stereo not shown), the IC50 was 0.133 µM under setting [1] and 3.74 µM under setting [4].

With `CN1CCN(C(=O)c2c(=O)c3ccc(NCC(O)c4ccccc4)nc3n3c2sc2ccccc23)CC1` (stereo not shown), the IC50 is, setting by setting: under setting [1], 2.51 µM; under setting [2], 3.13 µM; under setting [3], 0.543 µM; under setting [4], 6.67 µM.

In the case of `CN1CCCCC1CNC(=O)c1c(=O)c2ccc(NCC(O)c3ccccc3)nc2n2c1sc1ccccc12` (stereo not shown), the IC50 came out at 0.267 µM under setting [1] and 0.633 µM under setting [4].

Consider `O=C(NCC1CC1)c1c(=O)c2ccc(NCC(O)c3ccccc3)nc2n2c1sc1ccccc12` (stereo not shown), for which the IC50 under setting [1] is greater than 10 µM, the IC50 under setting [2] is greater than 10 µM, the IC50 under setting [3] stood at 5.03 µM and the IC50 under setting [4] was 6.08 µM.

As to `CN1CCCN(c2nc3c(cc2F)c(=O)c(C(=O)NCc2ccccn2)c2sc4ccccc4n23)CC1`, the 50% inhibitory concentration (IC50) under setting [5] turned out to be 0.118 µM; the IC50 under setting [6] is 0.941 µM; the IC50 under setting [7] was 0.043 µM; the IC50 under setting [8] amounted to 7.77 µM; the IC50 under setting [9] came to 1.33 µM.

For `CN1CCCN(c2nc3c(cc2F)c(=O)c(C(=O)NCc2cccnc2)c2sc4ccccc4n23)CC1`, the IC50 by setting is: under setting [5], 0.032 µM; under setting [6], 0.133 µM; under setting [7], less than 0.03 µM; under setting [8], 2.48 µM; under setting [9], 0.356 µM.

On to `CN1CCCN(c2nc3c(cc2F)c(=O)c(C(=O)NCc2ccncc2)c2sc4ccccc4n23)CC1`, for which the IC50 reads like this: under setting [5], 0.095 µM; under setting [6], 0.131 µM; under setting [7], less than 0.03 µM; under setting [8], 6.59 µM; under setting [9], 1.06 µM.

For `CN1CCCN(c2nc3c(cc2F)c(=O)c(C(=O)N2CCOCC2)c2sc4ccccc4n23)CC1`, the IC50 is, setting by setting: under setting [5], 0.11 µM; under setting [6], 0.352 µM; under setting [7], less than 0.03 µM; under setting [8], 1.21 µM; under setting [9], 0.59 µM.

Consider `CN1CCCN(c2nc3c(cc2F)c(=O)c(C(=O)NN2CCOCC2)c2sc4ccccc4n23)CC1`, for which the IC50 reads like this: under setting [5], 0.267 µM; under setting [6], 0.359 µM; under setting [7], 0.124 µM; under setting [8], 1.8 µM; under setting [9], 1.32 µM.

As to `CN1CCCN(c2nc3c(cc2F)c(=O)c(C(=O)NCCCO)c2sc4ccccc4n23)CC1`, the IC50 was 0.051 µM under setting [5]; less than 0.12 µM under setting [6]; 0.032 µM under setting [7]; 2.65 µM under setting [8]; 0.571 µM under setting [9].

Regarding `Cc1cnc(CNC(=O)c2c(=O)c3ccc(N4CCCNCC4)nc3n3c2sc2ccccc23)cn1`, the IC50 was 0.101 µM under setting [5], 0.637 µM under setting [6] and 0.084 µM under setting [7].

The record behind these values is patent publication US8853234B2, “Quinolone analogs and methods related thereto” (Senhwa Biosciences, Inc., priority 2007, dated 2014).
